≈ marks a conversion by molar mass, not a printed value. Where “and” joins values, the source holds several entries; their conditions need not be identical. Identical values can stand only once. Like-named read-outs stand apart in the source and are kept apart here.
Key:
[1] = tested on: Staphylococcus aureus IM149; experiment: MIC by serial dilution, Strain A; assay type: cell-based; details: range between last concentration with growth and first without growth
Description: (§1) The MICs were calculated using the serial dilution method, and are expressed as the range between the last concentration at which the bacterial strain grows and the first concentration at which the strain tested no longer grows.

[2] = tested on: Bacillus Subtilis ATCC 6633; experiment: MIC by serial dilution, Strain B; assay type: cell-based; details: ATCC6633, range between last concentration with growth and first without growth
Description: as §1

[3] = tested on: Escherichia Coli ATCC 25922; experiment: MIC by serial dilution, Strain C; assay type: cell-based; details: ATCC25922, range between last concentration with growth and first without growth
Description: as §1

Escherichia Coli NK12 = experiment: MIC by serial dilution, Strain D; assay type: cell-based; details: COLINK12, range between last concentration with growth and first without growth
Description: as §1

[4] = Pharmacokinetics after intravenous administration in male rats; details: Sprague-Dawley, rat, in vivo, 1 mg/kg
Description: (§2) To 0.250 mL of this solution, 4.750 mL of saline are added, obtaining a final 0.2 mg/mL (5% DMSO, 95% saline) solution. A volume of 5 mL/Kg is administered to 3 rats in each group to have a 1 mg/Kg dose for each of the two products. • Oral Administration of RFX and Derivative 3: the two products were dissolved in DMSO obtaining two solutions having a 60 mg/mL concentration (stock solutions). To 0.5 mL of each solution, 2.0 mL of PEG 400 and 7.5 mL of saline solution were added under stirring, obtaining a stable suspension with a nominal concentration of 3 mg/mL. A volume equal to a 30 mg/kg dose is administered to the animal.
(§3) Male Sprague Dawley rats, weighing between 250 and 300 g, were used in the study. The animals were housed and observed before the experiment according to an approved GMP protocol according to Italian legislation.
(§4) The rats were divided into three groups: • Group 1: i.v. treatment • Group 2: oral treatment for blood sampling • Group 3: oral treatment for urine and stool collection
(§5) Plasma: the calibration curve and the QC samples were prepared in untreated rat plasma, adding 5 μL of each stock solution to 45 μL of untreated rat plasma. The 50 μL of plasma obtained were diluted up to 100 μL with cold acetonitrile containing the Internal Standard (I.S.) at the final concentration of 50 ng/mL, and centrifuged for 5 min. at 9000 rpm at 5° C. The supernatant was transferred to a 96-well plate for analysis. The samples of Groups 1 and 2 were similarly prepared using 50 μL of plasma from the treated rats.
(§6) A non-compartmental analysis was applied, and the following pharmacokinetic parameters were considered for each subject:
(§7) The concentration data were extrapolated using the Analyst™ 6.1 software (Applied Biosystems); the AUCs were calculated using a linear-trapezoidal method, and a weight uniformity was performed as the first approach. The concentration/time graphs were performed after logarithmic transformation of the results using PK Solver 2.0 software, Excel 2007 Microsoft add in.

[5] = Pharmacokinetics after oral administration in male rats; details: Sprague-Dawley, rat, in vivo
Description: as §2, §3, §4, §5, §6, §7

Bifidobacterium = experiment: qPCR count of intestinal bacteria in rat stool after 5 days oral treatment; assay type: in vivo, Sprague Dawley rats; details: for cell count average value Bifidobacterium: group average of cell counts; for Ct Values Bifidobacterium / Cell Count Bifidobacterium: individual rats, listed as RFX; for Ct Values Bifidobacterium: average of three qPCR analyses; for Cell Count Bifidobacterium: derived from Ct values
Description: (§8) The stools were collected at T0 and the day after the last treatment.
(§9) The two products were first dissolved in DMSO at the concentration of 100 mg/mL (stock solution), then to 0.5 mL of each solution 2.0 mL of PEG 400 and 7.5 mL of saline solution were added, under stirring. A stable suspension at the nominal concentration of 5 mg/mL is obtained. A volume of 10 mL/kg, equal to 50 mg/kg, is administered.
(§10) The detection method is based on isolation of the total genomic DNA from each stool sample, using a specific commercial kit. After the quali-quantitative evaluation of the DNA, the same DNA samples were stored at −20° C. Quantitative analyzes were performed using qPCR Real Time with the use of a DNA primer couples specific for Bifidobacterium, Enterococcus, Enterobacter, and Lactobacillus species.
(§11) DNA isolation was performed using the PowerFecal® DNA Isolation Kit (MO BIO Laboratories) commercial kit on a sample of 250 mg stool, each time. After isolation, the DNA samples were evaluated by spectrophotometric analysis. Each DNA sample was quantified in the 60-100 ng/μL range (high in proteins and sugars), as typical for stool-derived DNA.
(§12) Each sample was evaluated three times. For each DNA sample and for each specific DNA primer couple, the analysis provided a CT value that resulted to be correlated to the amount of DNA specific to the bacterial species, therefore closely correlated to the number of bacterial cells of that species present in the stool sample.
(§13) For relative quantification, a “generalized linear mixed model (GLMM) under Poisson-lognormal error” was applied. MCMC.qPCR R package was used to convert CT values into bacterial cell numbers. For the conversion, the formula: Number of cells=E(Ct1−Ct) was used, where E represents the efficiency of amplification, which in the present case assumes the value of 2. Ct1 represents the number of qPCR cycles needed to detect a single target molecule (in this study Ct1 is supposed to have the value of 39).
(§14) The Markov Chain Monte Carlo algorithm (MCMC) was used to estimate the effect of time on the development levels of each microbial genus. The GLMM method was used to verify if the levels of each bacterial genus at T0 and T5 differ. Furthermore, a statistical analysis to evaluate the significance of the differences between the T0 and T5 values was performed.

Enterobacter = experiment: as above; assay type: in vivo, Sprague Dawley rats; details: for cell count average value Enterobacter: group average of cell counts; for Ct Values Enterobacter / Cell Count Enterobacter: individual rats, listed as RFX; for Ct Values Enterobacter: average of three qPCR analyses; for Cell Count Enterobacter: derived from Ct values
Description: as §8, §9, §10, §11, §12, §13, §14

Enterococcus = experiment: as above; assay type: in vivo, Sprague Dawley rats; details: for cell count average value Enterococcus: group average of cell counts; for Ct Values Eterococcus / Cell Count Eterococcus: individual rats, listed as RFX; for Ct Values Eterococcus: average of three qPCR analyses; for Cell Count Eterococcus: derived from Ct values
Description: as §8, §9, §10, §11, §12, §13, §14

Lactobacillus = experiment: as above; assay type: in vivo, Sprague Dawley rats; details: for cell count average value Lactobacillus: group average of cell counts; for Ct Values Lactobacillus / Cell Count Lactobacillus: individual rats, listed as RFX; for Ct Values Lactobacillus: average of three qPCR analyses; for Cell Count Lactobacillus: derived from Ct values
Description: as §8, §9, §10, §11, §12, §13, §14

[6] = cited from earlier work
[7] = T5 (day after 5 days oral 50 mg/kg)
[8] = T5 (day after 5 days oral 50 mg/kg), 50 mg/kg
[9] = oral treatment 5 days, 50 mg/kg, T5 vs T0

MIC [1]: 0.25 to 0.5 µg/mL (≈ 0.318 to 0.636 µM)
MIC [2]: 0.125 to 0.25 µg/mL (≈ 0.159 to 0.318 µM)
MIC [3]: 2 to 4 µg/mL (≈ 2.54 to 5.09 µM)
MIC (Escherichia Coli NK12): 4 to 8 µg/mL (≈ 5.09 to 10.2 µM)
AUC(0-inf) [4]: 1990 ng·h/mL
AUC(0-t) [4]: 1990 ng·h/mL
C0 [4]: 3760 ng/mL
Cl_obs [4]: 9.8 mL/min/kg
Cmax [4]: 2880 ng/mL
MRT inf [4]: 1.18 h
Tmax [4]: 5 min
Vss_obs [4]: 0.757 L/kg
half-life [4]: 2.45 h
bioavailability [5]: 0.4%
AUC(0-inf) ([5]; po, 30 mg/kg): 222 ng·h/mL
AUC(0-t) ([5]; po, 30 mg/kg): 197 ng·h/mL
Cmax ([5]; po, 30 mg/kg): 57.1 ng/mL
MRT inf ([5]; po, 30 mg/kg): 9.22 h
Tmax ([5]; po, 30 mg/kg): 0.5 h
half-life ([5]; po, 30 mg/kg): 9.63 h
Compound: CO[C@H]1/C=C/O[C@@]2(C)Oc3c(C)c(O)c4c(O)c(c5c(nc6cc(C)ccn65)c4c3C2=O)NC(=O)/C(C)=C\C=C\[C@H](C)[C@H](O)[C@@H](C)[C@@H](O)[C@@H](C)[C@H](OC(C)=O)[C@@H]1C [Rifaximin, reference compound]
cell count average value Bifidobacterium (Bifidobacterium; T0 (before treatment)): 6.87 × 10^6
Ct Values Bifidobacterium (Bifidobacterium; T0 (before treatment)): 15.880 and 14.080 and 22.166 and 21.412 and 24.420 and 23.158
Cell Count Bifidobacterium (Bifidobacterium; T0 (before treatment)): 9.11E+06 cells per mg of stool and 3.17E+07 cells per mg of stool and 1.17E+05 cells per mg of stool and 1.97E+05 cells per mg of stool and 2.45E+04 cells per mg of stool and 5.87E+04 cells per mg of stool
cell count average value Bifidobacterium (Bifidobacterium; [7]): 8.26 × 10^6
Ct Values Bifidobacterium (Bifidobacterium; [8]): 13.747 and 16.114 and 24.545 and 18.232 and 27.172 and 26.104
Cell Count Bifidobacterium (Bifidobacterium; [8]): 4.00E+07 cells per mg of stool and 7.75E+06 cells per mg of stool and 2.25E+04 cells per mg of stool and 1.79E+06 cells per mg of stool and 3.64E+03 cells per mg of stool and 7.62E+03 cells per mg of stool
decrease in the bacterial count for the Bifidobacterium genus (Bifidobacterium; [9]): no significant differences
cell count average value Enterobacter (Enterobacter; T0 (before treatment)): 2.69 × 10^6
Ct Values Enterobacter (Enterobacter; T0 (before treatment)): 17.704 and 23.688 and 16.284 and 17.749 and 17.616 and 18.371
Cell Count Enterobacter (Enterobacter; T0 (before treatment)): 2.57E+06 cells per mg of stool and 4.07E+04 cells per mg of stool and 6.89E+06 cells per mg of stool and 2.50E+06 cells per mg of stool and 2.74E+06 cells per mg of stool and 1.62E+06 cells per mg of stool
cell count average value Enterobacter (Enterobacter; [7]): 5.98 × 10^5
Ct Values Enterobacter (Enterobacter; [8]): 20.143 and 25.467 and 17.828 and 21.542 and 23.096 and 20.066
Cell Count Enterobacter (Enterobacter; [8]): 4.75E+05 cells per mg of stool and 1.19E+04 cells per mg of stool and 2.36E+06 cells per mg of stool and 1.80E+05 cells per mg of stool and 6.13E+04 cells per mg of stool and 5.01E+05 cells per mg of stool
drop in cell count for the Enterobacter genus (Enterobacter; [9]): about 10 times
cell count average value Enterococcus (Enterococcus; T0 (before treatment)): 9.2 × 10^6
Ct Values Eterococcus (Enterococcus; T0 (before treatment)): 23.236 and 22.741 and 14.976 and 16.124 and 18.925 and 14.203
Cell Count Eterococcus (Enterococcus; T0 (before treatment)): 5.56E+04 cells per mg of stool and 7.84E+04 cells per mg of stool and 1.71E+07 cells per mg of stool and 7.70E+06 cells per mg of stool and 1.10E+06 cells per mg of stool and 2.91E+07 cells per mg of stool
cell count average value Enterococcus (Enterococcus; [7]): 28 × 10^4
Ct Values Eterococcus (Enterococcus; [8]): 23.676 and 24.09 and 24.608 and 23.121 and 25.293 and 26.739
Cell Count Eterococcus (Enterococcus; [8]): 4.10E+04 cells per mg of stool and 3.06E+04 cells per mg of stool and .15E+04 cells per mg of stool and 6.03E+04 cells per mg of stool and 1.34E+04 cells per mg of stool and 4.91E+03 cells per mg of stool
drop in cell count for the Enterococcus genus (Enterococcus; [9]): about 100 times
cell count average value Lactobacillus (Lactobacillus; T0 (before treatment)): 1.3 × 10^6
Ct Values Lactobacillus (Lactobacillus; T0 (before treatment)): 20.565 and 20.928 and 19.111 and 20.465 and 17.200 and 17.852
Cell Count Lactobacillus (Lactobacillus; T0 (before treatment)): 3.55E+05 cells per mg of stool and 2.75E+05 cells per mg of stool and 9.71E+05 cells per mg of stool and 3.80E+05 cells per mg of stool and 3.65E+06 cells per mg of stool and 2.32E+06 cells per mg of stool
cell count average value Lactobacillus (Lactobacillus; [7]): 6.6 × 10^5
Ct Values Lactobacillus (Lactobacillus; [8]): 20.364 and 19.891 and 18.746 and 19.308 and 19.872 and 20.306
Cell Count Lactobacillus (Lactobacillus; [8]): 4.07E+05 cells per mg of stool and 5.65E+05 cells per mg of stool and 1.25E+06 cells per mg of stool and 8.47E+05 cells per mg of stool and 5.73E+05 cells per mg of stool and 4.24E+05 cells per mg of stool
change in cell count for the Lactobacillus genus (Lactobacillus; [9]): no significant differences
solubility ([6]; in the presence of 20 mM bile acids): 72.6%
solubility ([6]; in water): 0.6%
